pIC50: −log10 of the molar value. Read-outs that look alike come from different tables or passages of the source.
Columns and labels:
[1] = test system: Human DNA topoisomerase II; settings: at higher concentrations; Thurston et al. 1986; cited from earlier work
KB cells = experiment: Cytotoxicity: 50% reduction in cell number of KB cells after three day incubation; format: cell-based; settings: Homo sapiens, 72 h, KB cells, three day incubation, read-out: Cytotoxicity ID50 KB
Method: (§1) The compounds of the present invention were tested for their degree of inhibitory activity on human type II DNA topoisomerase, their effect on the formation of protein-linked DNA breakage, and their cytotoxicity. The inhibitory activity for compounds of the present invention correlated with the ability of the compounds to cause DNA strand breakage. […] For a description of the assays used with respect to the compounds listed in Tables 1 to 5 see Thurston, L.S., Irie, H., Tani, S., Han, F. S., Liu, Z. C., Cheng, Y.C., and Lee, K. H., Antitumor Agents 78. Inhibition of Human DNA Topoisomerase II by Podophyllotoxin and Peltatin Analogues, J. Med. Chem. 29, 1547 (1986), and the references cited therein, herein incorporated by reference.
in cell number after three day incubation.

[2] = biological target: Human DNA topoisomerase II; experiment: DNA topoisomerase II assay (P4 unknotting reaction); format: biochemical; settings: for pIC50: read-out: Inhibition of DNA Topoisomerase II Activity ID50; for inhibition of DNA topoisomerase activity relative to etoposide: compared with etoposide
Method: as §1, with “cytotoxicity.” for “cytotoxicity. The inhibitory activity for compounds of the present invention correlated with the ability of the compounds to cause DNA strand breakage.”
Human DNA topoisomerase II was isolated from peripheral blast cells of a patient with acute leukemia. The isolation procedure is described in Thurston, L., Imakura, Y., Haruna, M., Li, Z. C., Liu, S. Y., and Lee, K. H., J. Med. Chem., 31, […] (1988) and is a partial combination of the procedure described in Goto, T., Laiapia, P. and Wang, J., J. Biol. Chem., 259, 10422 (1984) and Halligan, B., Edwards, K., and Liu, L., J. Biol. Chem., 260, 2475 (1985) which are herein specifically incorporated by reference.
(§2) Drugs were dissolved in Me2 SO at a concentration of 20 mM as the stock solution and diluted before use with water to the desired concentration of each drug.
The P4 unknotting reaction was a modification of the procedure described by Hseih, T., J. Biol. Chem., 258, 8413 (1985), which is herein specifically incorporated by reference.
The reaction mixture (20 μL), which contained 50 mM HEPES, pH 7.0, 50 mM KCI, 100 mM NaCl, 0.1 mM EDTA, 10 mM MgCl2, 1.0 mM ATP, 50 μg/mL bovine serum albumin, 0.4 μg P4knotted DNA, and enzyme, was incubated with or without drugs.
The reaction mixture was incubated at 37° C. for 30 min and terminated by adding 5.0 μl of a stop solution (2% sodium dodecyl sulfate, 20% glycerol, 0.05% bromophenol blue). These samples were loaded onto a 1% agarose gel and electrophoresed at 55 V overnight with an electrophoresis buffer that contained 90 mM Tris-boric acid, pH 8.3, and 2.5 mM EDTA. At completion, the gel was stained in 0.5 μg/mL of ethidium bromide. Then a photograph was taken of the DNA bands visualized with fluorescence induced by a long-wavelength UV lamp. […]

[3] = test system: covalent topoisomerase II-DNA complexes; experiment: K-SDS precipitation assay for protein-DNA complexes in KB ATCC cells (cellular protein-DNA complex formation); format: cell-based; settings: compared with etoposide
Method: as §1, §2
The intracellular formation of covalent topoisomerase II-DNA complexes was quantitated using the potassium SDS precipitation assay, a procedure adapted from the method described in Rowe, T. C., Chen, G. L., Hsiang, Y. H., and Liu, L., Cancer Res., 46, 2021 (1986) (hereinafter Rowe et al.), which is herein specifically incorporated by reference. KB ATCC cells were prelabeled with 0.05 mCi/ml ^14 C-thymidine (specific activity 50.5 mCi/mmol) for 18 hr. A final concentration of 5×10^5 cells/sample were treated with 10 μM of the drugs at 37° C. for 1 hr and proceeded according to the procedure described by Rowe et al. to detect the protein linked DNA levels.

[4] = test system: several human neoplasms, including small cell carcinomas of the lung, testicular carcinomas, Hodgkin's disease, leukemia, lymphoma and Kaposi's Sarcoma; settings: background; cited from earlier work
[5] = clinical level; background; cited from earlier work
[6] = clinical level; background; cited from earlier work; remark: listed apart in the source
[7] = Table 1, based on degree of inhibition at 25, 50, and 100 μM

SMILES	pIC50 (KB cells; Table 1)	pIC50 [2, 7]	inhibition of DNA topoisomerase activity relative to etoposide [2]	inhibition of cellular protein-DNA complex formation relative to etoposide [3]	also measured
CCOC1c2cc3c(cc2C(c2cc(OC)c(O)c(OC)c2)C2C(=O)OCC12)OCO3 (centres unmarked) [4'-demethyl-epipodophyllotoxin ethyl ether]					inhibitory activity of DNA topoisomerase II [1]: preserves the inhibitory activity of DNA topoisomerase II intact at higher concentrations
COc1cc(C2c3cc4c(cc3C(NCc3cccc(C#N)c3)C3COC(=O)C23)OCO4)cc(OC)c1O (stereo not drawn) [Example 10, 4'-O-Demethyl-4β-(3"-cyanobenzylamino)-4-desoxypodophyllotoxin]	> 6.40	4.60	over twice	over twice	
COc1cc(C2c3cc4c(cc3C(NCc3ccc(C#N)cc3)C3COC(=O)C23)OCO4)cc(OC)c1O (stereo not drawn) [Example 11, 4'-O-Demethyl-4β-(4"-cyanobenzylamino)-4-desoxypodophyllotoxin]	> 6.40	4.60	over twice	over twice	
COc1cc(C2c3cc4c(cc3C(Nc3ccc([N+](=O)[O-])cc3)C3COC(=O)C23)OCO4)cc(O)c1O (stereo not drawn) [Example 23, 3',4'-O-Didemethyl-4β-(4"-nitroanilino)-4-desoxypodophyllotoxin]			over twice	over twice	pIC50 (KB cells; Table 2): 5.89; pIC50 ([2]; Table 2, based on degree of inhibition at 10, 25, 50 and 100 μM): 5.00
COc1cc([C@@H]2c3cc4c(cc3[C@@H](O[C@@H]3O[C@@H]5CO[C@@H](C)O[C@H]5[C@H](O)[C@H]3O)[C@H]3COC(=O)[C@H]23)OCO4)cc(OC)c1O [etoposide]	6.70				therapeutic activity in several human neoplasms [4]: exhibits therapeutic activity in several human neoplasms; myelosuppression [5]: myelosuppression; oral bioavailability [6]: poor oral bioavailability

— patent publication US5332811A, “Etopside analogs” (priority 1991, dated 1994)
